Results reported in patent US20240390417A1, “MNO NANOMATERIAL BASED INHIBITORS OF INFLAMMATION AND SARS-COV-2 VIRAL REPLICATION” (Duke University, priority 2015, published 2024).

Tests used:
calf thymus DNA = experiment: PicoGreen DNA-binding assay; settings: TE buffer, unbound PicoGreen-labeled DNA
Experimental: The fluorescence intensity of the unbound Picogreen®-DNA complex at 520 nm was measured with a multiwell plate reader via excitation at 490 nm.
Inflammatory circulating cfDNA released by PTT-damaged host cells might cause a severe inflammatory response, which may be mitigated by the scavenging of cfDNA. Therefore, to interrogate the cfDNA scavenging ability of the various nanoparticles, the inventors investigated the calf thymus DNA binding affinity of the nanoparticles in Tris-EDTA (TE) buffer with and without 10% FBS by measuring unbound PicoGreen®-labeled DNA (FIGS. 5C and 5D).

4T1 tumor-bearing mice = experiment: PTT-induced inflammation, 4T1 metastasis tumor model; settings: intravenous three times per week
Experimental: The fluorescent signal intensity was recorded on the IVIS® instrument at different time intervals.
The ability of the MnO and MnO@Cucumin nanoparticles to mitigate the PTT-induced inflammatory response was examined on 4T1 tumor-bearing mice. […] The 4T1 tumor-bearing mice received photothermal therapy first, and then were further treated with different formulations by intravenous injection three times per week.

SMILES | DNA binding affinity (calf thymus DNA) | body weight (4T1 tumor-bearing mice; after laser (PTT)) | tumor recurrence and metastasis (4T1 tumor-bearing mice; after laser (PTT)) | effect on body weight of the mice (4T1 tumor-bearing mice; without laser) | effect on size of the tumors (4T1 tumor-bearing mice; without laser)
O=C(OC[C@H]1O[C@@H](OC(=O)c2cc(O)c(O)c(OC(=O)c3cc(O)c(O)c(O)c3)c2)[C@H](OC(=O)c2cc(O)c(O)c(OC(=O)c3cc(O)c(O)c(O)c3)c2)[C@@H](OC(=O)c2cc(O)c(O)c(OC(=O)c3cc(O)c(O)c(O)c3)c2)[C@@H]1OC(=O)c1cc(O)c(O)c(OC(=O)c2cc(O)c(O)c(O)c2)c1)c1cc(O)c(O)c(OC(=O)c2cc(O)c(O)c(O)c2)c1 [tannic acid] | can bind to DNA |  |  |  | 
COc1cc(/C=C/C(=O)CC(=O)/C=C/c2ccc(O)c(OC)c2)ccc1O [curcumin] | negligible DNA binding ability | increased body weight | inhibited tumor recurrence and metastasis | did not show obvious effects | did not show obvious effects
